Reference: patent publication US4298375A, “2-Substituted-5-phenyl-4-thiazolecarboxylic acids and their derivatives as safening agents” (Monsanto Company, priority 1979, dated 1981)

What was measured:
Format in all cases: in vivo
[1] = test system: Green Foxtail; assay: Example 6: herbicidal effect on weed (Green Foxtail) of alachlor with or without safening agent, soil treated with mixture, approximately 21 days
Protocol: (§1) A good grade of top soil was placed in a plastic pot and compacted to a depth of approximately 1.27 cm. from the top of said pot. A predetermined number of sorghum seeds and weed seeds were placed on top of the soil. A cover layer, approximately 1.27 cm., was placed on top of said seeds. The soil was then treated with a mixture of the safening agent and alachlor dispersed or dissolved in a suitable solvent. For each test series, pots were treated with only the herbicide. Additionally, pots were treated with only the safening agent. The herbicidal effect was observed approximately 21 days after treatment. Table IV summarizes the results obtained when the compounds of the invention were tested in accordance with the procedure of Example 6. Note that in each test a control is used in which the sorghum plants are treated with various rates of alachlor herbicide alone.

[2] = test system: sorghum; assay: Example 6: herbicidal effect on sorghum of alachlor with or without safening agent, soil treated with mixture, approximately 21 days; conditions: for safening when tested in accordance with the procedure of Example 6: alachlor
Protocol: as §1

[3] = test system: sorghum; assay: Example 5: safening against triallate, alachlor or butachlor, safener and herbicide incorporated in soil, greenhouse, approximately 21 days; parameters: key: (herbicide alone + safener alone, capped at 100) minus combination effect; conditions: safening agent 8.96 kg/h
Protocol: A good grade of top soil is placed in a container and compacted to a depth of approximately 1.27 cm. from the top of said container. A predetermined number of sorghum seeds to be tested are placed on top of the soil. A quantity of soil sufficient to substantially fill the container is measured and placed in a second container. A measured quantity of the safening agent dispersed or dissolved in a suitable carrier is applied to the soil in the second container. A measured quantity of triallate, alachlor or butachlor herbicide dispersed or dissolved in a suitable carrier is then sprayed on the soil already treated with the safening agent. The soil containing the safening agent and the herbicide is thoroughly mixed. This mixing is sometimes referred to as incorporation of the herbicide and safening agent into the soil. The mixing or incorporation provides a substantially uniform distribution of the safening agent and herbicide throughout the soil. The sorghum seeds are covered with the soil containing the safening agent and herbicide and the pans are leveled. The pans are then placed on a sand bench in the greenhouse and watered from below as needed. The sorghum plants are observed at the end of approximately 21 days and the results in terms of percent inhibition of each seed lot are recorded. For each test series a pan of plants is also prepared containing no herbicide and no safening agent as a control. Additionally, for each test, a pan of plants is prepared with soil covering the seed containing no herbicide and only the measured amount of safening agent being incorporated into the soil covering the seeds to ascertain any herbicidal effect of the safening agent alone. For each series of tests the herbicidal effect of the herbicide is observed from pans of sorghum plants tested with the same quantity of herbicide alone. The "safening effect" is determined by adding the herbicidal effect of the herbicide when applied alone to the herbicidal effect of the safening agent when applied alone (in no instance, however, will this sum be greater than 100) and subtracting from that the herbicidal effect obtained when the herbicide and safening agent are incorporated into the soil as discussed above.

[4] = alachlor alone 0.56 kg/h, no safening agent, first test
[5] = alachlor alone 0.56 kg/h, no safening agent, second test
[6] = alachlor alone 1.12 kg/h, no safening agent, first test
[7] = alachlor alone 1.12 kg/h, no safening agent, second test
[8] = alachlor alone 2.24 kg/h, no safening agent, first test
[9] = alachlor alone 2.24 kg/h, no safening agent, second test
[10] = alachlor alone 4.48 kg/h, no safening agent, first test
[11] = alachlor alone 4.48 kg/h, no safening agent, second test
[12] = safening agent 8.96 kg/h + alachlor 0.56 kg/h
[13] = safening agent 8.96 kg/h + alachlor 1.12 kg/h
[14] = safening agent 8.96 kg/h + alachlor 4.48 kg/h
[15] = safening agent 8.96 kg/h alone, alachlor 0.00 kg/h
[16] = safening agent 9.96 kg/h (so in the source) + alachlor, rate not printed on this line (line below 4.48 kg/h)
[17] = alachlor 2.24 kg/h, (herbicide alone + safener alone) minus combination
[18] = butachlor 6.72 kg/h, value given as symbol *
[19] = triallate 0.56 kg/h, (herbicide alone + safener alone) minus combination
[20] = safening agent 8.96 kg/h + alachlor 2.24 kg/h
[21] = butachlor 6.72 kg/h, (herbicide alone + safener alone) minus combination

Row | Structure (SMILES) | % Inhibition Green Foxtail [1, 12] [%] | % Inhibition Green Foxtail [1, 13] [%] | % Inhibition Green Foxtail [1, 14] [%] | % Inhibition Green Foxtail [1, 15] [%] | % Inhibition Sorghum [2, 12] [%] | % Inhibition Sorghum [2, 13] [%] | % Inhibition Sorghum [2, 14] [%] | % Inhibition Sorghum [2, 15] [%] | Safening Effect [3, 17] | Safening Effect [3, 18] | Safening Effect [3, 19] | Safening Effect [3, 21] | safening when tested in accordance with the procedure of Example 6 [2] | also measured
1 | CCc1cccc(CC)c1N(COC)C(=O)CCl [Alachlor, 2-chloro-2',6'-diethyl-N-(methoxymethyl)acetanilide, reference compound] |  |  |  |  |  |  |  |  |  |  |  |  |  | % Inhibition Green Foxtail [1, 4]: 98%; % Inhibition Green Foxtail [1, 5]: 98%; % Inhibition Green Foxtail [1, 6]: 99%; % Inhibition Green Foxtail [1, 7]: 98%; % Inhibition Green Foxtail [1, 8]: 100%; % Inhibition Green Foxtail [1, 9]: 98%; % Inhibition Green Foxtail [1, 10]: 100%; % Inhibition Green Foxtail [1, 11]: 100%; % Inhibition Sorghum [2, 4]: 80%; % Inhibition Sorghum [2, 5]: 80%; % Inhibition Sorghum [2, 6]: 85%; % Inhibition Sorghum [2, 7]: 85%; % Inhibition Sorghum [2, 8]: 90%; % Inhibition Sorghum [2, 9]: 85%; % Inhibition Sorghum [2, 10]: 95%; % Inhibition Sorghum [2, 11]: 100%
2 | COC(=O)c1nc(OC)sc1-c1ccccc1 [Example 3, Methyl 2-Methoxy-5-Phenyl-4-Thiazolecarboxylate] | 100 | 100 | 100 | 0 | 50 | 65 | 40 | 0 | 23 | * (Observed safening effect was less than 19.) | 37 |  |  | % Inhibition Green Foxtail [1, 16]: 100%; % Inhibition Sorghum [2, 16]: 75%
3 | COC(=O)c1nc(Cl)sc1-c1ccccc1 [Example 2, Methyl 2-Chloro-5-Phenyl-4-Thiazolecarboxylate] | 100 | 100 | 100 | 0 | 30 | 65 | 70 | 0 | 20 |  | 45 | 40 |  | % Inhibition Green Foxtail [1, 20]: 100%; % Inhibition Sorghum [2, 20]: 70%
4 | COC(=O)c1nc(N)sc1-c1ccccc1 [Example 1, Methyl 2-Amino-5-Phenyl-4-Thiazolecarboxylate] |  |  |  |  |  |  |  |  | 24 |  | 56 | 35 | no significant safenin | 
5 | COC(=O)c1nc(Sc2ccccc2)sc1-c1ccccc1 [Example 4, Methyl 5-Phenyl-2-Phenylthio-4-Thiazolecarboxylate] |  |  |  |  |  |  |  |  | 20 | * (Observed safening effect was less than 19.) | 35 |  | no significant safenin | 
